Among the data in ChEMBL document CHEMBL1909046, “DrugMatrix in vitro pharmacology data” are IC50 and Ki values, retold here.

Usually IC50 stands for the concentration that inhibits the measured activity by half. By Ki is commonly meant the equilibrium dissociation constant of an inhibitor or competing ligand from its target.

For test [1], the target named is T1, Calcitonin receptor (Homo sapiens, UniProt P30988). Further: in other assays of this panel Not Active means under 50% inhibition at 10 µM.
T1 sequence (P30988 whole entry): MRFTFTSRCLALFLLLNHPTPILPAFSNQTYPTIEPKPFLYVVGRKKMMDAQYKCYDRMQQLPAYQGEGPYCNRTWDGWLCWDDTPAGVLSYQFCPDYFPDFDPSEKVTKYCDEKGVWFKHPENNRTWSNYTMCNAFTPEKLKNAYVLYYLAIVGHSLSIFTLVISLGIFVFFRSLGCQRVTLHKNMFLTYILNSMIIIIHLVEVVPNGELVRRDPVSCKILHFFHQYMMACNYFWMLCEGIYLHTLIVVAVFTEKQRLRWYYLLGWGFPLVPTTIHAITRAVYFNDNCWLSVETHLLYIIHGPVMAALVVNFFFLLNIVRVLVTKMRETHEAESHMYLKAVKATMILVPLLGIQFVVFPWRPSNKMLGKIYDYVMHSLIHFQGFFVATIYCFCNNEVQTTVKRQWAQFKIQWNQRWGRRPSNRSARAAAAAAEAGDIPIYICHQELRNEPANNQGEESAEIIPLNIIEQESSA
Format: cell membranes, Membrane. To be noted: t47d.

Test [2] deals with T2, D(4) dopamine receptor (Homo sapiens, UniProt P21917).
T2 sequence (P21917 whole entry): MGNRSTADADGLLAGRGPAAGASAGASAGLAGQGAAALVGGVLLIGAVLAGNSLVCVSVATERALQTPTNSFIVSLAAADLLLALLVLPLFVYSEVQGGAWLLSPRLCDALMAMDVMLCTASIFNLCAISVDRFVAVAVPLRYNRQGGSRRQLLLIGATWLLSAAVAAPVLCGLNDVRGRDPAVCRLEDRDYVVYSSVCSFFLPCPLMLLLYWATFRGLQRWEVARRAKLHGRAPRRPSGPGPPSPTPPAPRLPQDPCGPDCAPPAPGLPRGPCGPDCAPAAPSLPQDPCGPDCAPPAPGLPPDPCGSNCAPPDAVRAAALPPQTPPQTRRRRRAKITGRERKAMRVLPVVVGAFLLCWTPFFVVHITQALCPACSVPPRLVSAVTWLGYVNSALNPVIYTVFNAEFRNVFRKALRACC
The test can be described thus: DRUGMATRIX: Dopamine D4.2 radioligand binding (ligand: [3H] Spiperone). Format: cell membranes, CHO-K1, Membrane. To be noted: cho-k1, Not Active = under 50% inhibition at 10 µM.

Test [3] can be described thus: DRUGMATRIX: Phosphodiesterase PDE3 enzyme inhibition (substrate: [3H]cAMP + cAMP). To be noted: platelet; Not Active = under 50% inhibition at 10 µM. Format: tissue-based, Homo sapiens.
Test [4] has as its target Platelet-activating factor receptor (Homo sapiens, UniProt P25105). Format: tissue-based. Further: in other assays of this panel Not Active means under 50% inhibition at 10 µM.
For test [5], the target named is T3, Angiotensin-converting enzyme (Oryctolagus cuniculus, UniProt P12822).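 Further: enzymatic inhibition of angiotensin-converting enzyme measured with FAPGG as the substrate; in other assays of this panel Not Active means under 50% inhibition at 10 µM.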
T3 sequence (P12822 whole entry): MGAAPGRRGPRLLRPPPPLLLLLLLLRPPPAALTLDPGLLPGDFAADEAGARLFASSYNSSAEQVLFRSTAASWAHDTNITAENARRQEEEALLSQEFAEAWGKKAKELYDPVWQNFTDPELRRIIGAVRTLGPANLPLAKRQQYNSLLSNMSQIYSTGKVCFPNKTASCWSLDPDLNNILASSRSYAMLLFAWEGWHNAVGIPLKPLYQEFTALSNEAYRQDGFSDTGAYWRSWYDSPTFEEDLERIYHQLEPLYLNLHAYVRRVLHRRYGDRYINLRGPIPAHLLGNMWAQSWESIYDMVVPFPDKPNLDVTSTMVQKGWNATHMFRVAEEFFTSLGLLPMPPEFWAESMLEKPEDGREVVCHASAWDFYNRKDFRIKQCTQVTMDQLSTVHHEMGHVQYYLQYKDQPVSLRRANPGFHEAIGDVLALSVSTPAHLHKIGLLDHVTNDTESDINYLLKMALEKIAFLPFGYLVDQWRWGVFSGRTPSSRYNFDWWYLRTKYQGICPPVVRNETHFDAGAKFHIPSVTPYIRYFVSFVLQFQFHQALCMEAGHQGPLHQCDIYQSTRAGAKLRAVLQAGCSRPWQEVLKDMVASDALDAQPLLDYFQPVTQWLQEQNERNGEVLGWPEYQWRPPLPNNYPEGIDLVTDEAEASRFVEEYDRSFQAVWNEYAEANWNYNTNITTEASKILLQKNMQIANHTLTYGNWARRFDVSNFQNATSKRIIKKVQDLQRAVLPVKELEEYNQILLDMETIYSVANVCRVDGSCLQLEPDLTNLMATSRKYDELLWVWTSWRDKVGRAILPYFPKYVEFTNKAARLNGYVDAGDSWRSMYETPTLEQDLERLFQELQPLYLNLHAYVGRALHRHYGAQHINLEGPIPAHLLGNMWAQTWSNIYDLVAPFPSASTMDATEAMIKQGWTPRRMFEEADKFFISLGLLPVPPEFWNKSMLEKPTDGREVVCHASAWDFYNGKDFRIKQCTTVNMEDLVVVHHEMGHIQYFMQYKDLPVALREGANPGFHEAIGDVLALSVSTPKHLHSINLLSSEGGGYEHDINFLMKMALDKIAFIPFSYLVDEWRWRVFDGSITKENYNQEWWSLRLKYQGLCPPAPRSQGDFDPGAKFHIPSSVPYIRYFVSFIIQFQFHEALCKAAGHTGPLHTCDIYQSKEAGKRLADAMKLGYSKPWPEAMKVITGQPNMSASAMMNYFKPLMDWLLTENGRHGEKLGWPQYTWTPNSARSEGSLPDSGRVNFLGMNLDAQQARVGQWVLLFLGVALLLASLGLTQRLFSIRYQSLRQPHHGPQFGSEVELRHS
Format: tissue-based, Lung.

Test [6] deals with T4, Adenosine receptor A3 (Homo sapiens, UniProt P0DMS8).
T4 sequence (P0DMS8 whole entry): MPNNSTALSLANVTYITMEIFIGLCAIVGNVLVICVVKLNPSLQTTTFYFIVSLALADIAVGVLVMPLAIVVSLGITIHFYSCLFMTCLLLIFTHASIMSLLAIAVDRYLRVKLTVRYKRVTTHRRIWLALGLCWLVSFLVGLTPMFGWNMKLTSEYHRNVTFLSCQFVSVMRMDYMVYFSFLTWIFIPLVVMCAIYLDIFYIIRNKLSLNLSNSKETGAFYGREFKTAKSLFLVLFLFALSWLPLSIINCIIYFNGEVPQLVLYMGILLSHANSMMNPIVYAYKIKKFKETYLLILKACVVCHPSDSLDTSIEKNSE
Format: cell membranes, CHO-K1, Membrane. The following applies: cho-k1.

Sequence of Platelet-activating factor receptor (P25105 whole entry): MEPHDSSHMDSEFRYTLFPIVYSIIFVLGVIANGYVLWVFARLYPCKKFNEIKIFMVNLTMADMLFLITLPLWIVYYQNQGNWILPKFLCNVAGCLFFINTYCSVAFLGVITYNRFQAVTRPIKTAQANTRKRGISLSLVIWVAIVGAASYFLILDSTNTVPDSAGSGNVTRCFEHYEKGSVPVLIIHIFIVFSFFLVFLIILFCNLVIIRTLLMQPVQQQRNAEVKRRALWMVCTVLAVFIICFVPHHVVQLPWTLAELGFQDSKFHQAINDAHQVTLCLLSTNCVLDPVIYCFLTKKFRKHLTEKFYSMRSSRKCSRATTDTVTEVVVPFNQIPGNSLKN

In the case of `C[n+]1ccc(-c2cc[n+](C)cc2)cc1.[Cl-].[Cl-]` [PARAQUAT DICHLORIDE], the IC50 result in test [1], in test [2], in test [3], in test [4], in test [5] and in test [6] was “Not Active” each time. Moreover, the inhibitory constant (Ki) result in test [3] is on record as “Not Active”.
Turning to `CC(C)NCC(O)COc1cccc2[nH]ccc12` (centres undefined) [PINDOLOL], the 50% inhibitory concentration (IC50) entry in test [1], in test [2], in test [3], in test [4], in test [5] and in test [6] was “Not Active” throughout. Moreover, the Ki entry in test [3] is recorded as “Not Active”.
For the molecule `CCn1cc(C(=O)O)c(=O)c2cnc(N3CCCC3)nc21` [PIROMIDIC ACID], the concentration for half-maximal inhibition (IC50) result in test [1], in test [2], in test [3], in test [4], in test [5] and in test [6] was “Not Active” throughout. Also, the Ki entry in test [3] was “Not Active”.
On to `C[n+]1ccccc1/C=N/O.[Cl-]` [PRALIDOXIME CHLORIDE], for which the half-maximal inhibitory concentration (IC50) result in test [1], in test [2], in test [3], in test [4], in test [5] and in test [6] was “Not Active” in each case. For the same molecule, in test [3], the Ki entry is on record as “Not Active”.
On to `COc1cc2nc(N3CCN(C(=O)c4ccco4)CC3)nc(N)c2cc1OC` [PRAZOSIN], for which the IC50 entry in test [1], in test [2], in test [3], in test [4], in test [5] and in test [6] was “Not Active” in each case. The inhibitory constant (Ki) entry in test [3] is “Not Active”.
As for `C[C@]12C=CC(=O)C=C1CC[C@@H]1[C@@H]2[C@@H](O)C[C@@]2(C)[C@H]1CC[C@]2(O)C(=O)CO` [PREDNISOLONE], the 50% inhibitory concentration (IC50) result in test [1], in test [2], in test [3], in test [4], in test [5] and in test [6] was “Not Active” in each case. Moreover, the inhibition constant (Ki) entry in test [3] is listed as “Not Active”.
With `CC(=O)[C@H]1[C@H](C#N)C[C@H]2[C@@H]3CC=C4C[C@@H](O)CC[C@]4(C)[C@H]3CC[C@@]21C` [PREGNENOLONE CARBONITRILE], the IC50 entry in test [1], in test [2], in test [3], in test [4], in test [5] and in test [6] was “Not Active” in each case. In test [3], the Ki entry is “Not Active”.
For the molecule `CCCN(CCC)S(=O)(=O)c1ccc(C(=O)O)cc1` [PROBENECID], the IC50 result in test [1], in test [2], in test [3], in test [4], in test [5] and in test [6] was “Not Active” throughout. Moreover, the Ki entry in test [3] is on record as “Not Active”.
As for `CCCNCC(O)COc1ccccc1C(=O)CCc1ccccc1` (centres undefined) [PROPAFENONE], the IC50 entry in test [1], in test [2], in test [3], in test [4], in test [5] and in test [6] was “Not Active” in each case. Besides, the Ki entry in test [3] is “Not Active”.
Regarding `CCCOc1ccc(C(=O)OCCN(CC)CC)cc1N` [PROPARACAINE], the half-inhibitory concentration (IC50) entry in test [1], in test [2], in test [3], in test [4], in test [5] and in test [6] was “Not Active” throughout. The Ki entry in test [3] was “Not Active”.
Take `CC(C)c1cccc(C(C)C)c1O` [PROPOFOL]: the 50% inhibitory concentration (IC50) entry in test [1], in test [2], in test [3], in test [4], in test [5] and in test [6] was “Not Active” in each case. In addition, the inhibitory constant (Ki) entry in test [3] is listed as “Not Active”.
Consider `C[C@@H]1O[C@@H](O[C@@H]2C=C3CC[C@@H]4[C@H](CC[C@]5(C)[C@@H](c6ccc(=O)oc6)CC[C@]45O)[C@@]3(C)CC2)[C@H](O)[C@H](O)[C@H]1O` [PROSCILLARIDIN], for which the IC50 result in test [1], in test [2], in test [3], in test [4], in test [5] and in test [6] was “Not Active” each time. Besides, the Ki entry in test [3] is “Not Active”.
In the case of `Oc1cccc(O)c1O` [PYROGALLOL], the half-maximal inhibitory concentration (IC50) result in test [1], in test [2], in test [3], in test [4], in test [5] and in test [6] was “Not Active” in each case. In addition, the inhibitory constant (Ki) entry in test [3] is “Not Active”.
AURANOFIN: the concentration for half-maximal inhibition (IC50) result was “Not Active” in test [1]; “Not Active” in test [3]; “Not Active” in test [4]; “Not Active” in test [5]; 1690 nM in test [6] (read-out: IC50). Also, the Ki result in test [1] was “Not Active”; in test [2] (read-out: Ki), 394 nM; in test [3], “Not Active”; in test [4] it was “Not Active”; in test [5], “Not Active”; in test [6] (read-out: Ki) it was 954 nM.
For the molecule GADOPENTETATE DIMEGLUMINE, the IC50 result in test [1], in test [2], in test [3], in test [4], in test [5] and in test [6] was “Not Active” in each case. For the same molecule, the inhibitory constant (Ki) result in test [1], in test [2], in test [3], in test [4], in test [5] and in test [6] was “Not Active” in each case.
